Experiments:
Type in all cases: cell-based, human
[1] = tested on: PLC/PRF/5 cells; assay: Immunoblot of FAK/YAP signalling and pluripotency factors in dysadherin-OE PLC/PRF/5 cells
Method: (§1) Cells were lysed in RIPA buffer for 20 minutes on ice, and protein concentrations were measured using a bicinchoninic acid (BCA) assay kit (Thermo Fisher Scientific). The proteins were denatured with SDS (Sigma‒Aldrich) and by boiling at 95 °C for 5 minutes. Equal amounts (10 µg) were resolved by 10% SDS-PAGE and transferred to PVDF membranes (Millipore, Burlington, MA, USA). The membranes were blocked with 10% bovine serum albumin (Sigma‒Aldrich) and incubated overnight at 4 °C with the indicated primary antibodies. […] After washing, membranes were incubated with HRP-conjugated secondary antibodies, and signals were developed using SuperSignal™ West Dura Substrate (Thermo Fisher Scientific) and visualized using a Digital 8 Imaging System (ProteinSimple, San Jose, CA, USA). The antibodies used for immunoblot analyses are listed in Supplementary Table S3.

[2] = tested on: PLC/PRF/5 cells; assay: Sorafenib resistance (viability, Annexin V/PI apoptosis) in dysadherin-OE PLC/PRF/5 cells; conditions: dysadherin-OE PLC/PRF/5 cells with sorafenib
Method: The rate of cell apoptosis was quantified using apoptosis assays performed with an Annexin V-Fluorescein isothiocyanate (FITC) Apoptosis Detection Kit I. (BD Biosciences, San Jose, CA, USA). Cells were washed twice with cold PBS to yield single-cell suspensions at a concentration of 1×10⁶ cells/mL. The suspension was transferred to a tube containing 5 µL of FITC, annexin V, and propidium iodide (PI). After gentle vortexing, the mixture was incubated at room temperature for 15 min in the dark. After incubation, 400 µL of 1 x binding buffer was added to each sample prior to flow cytometry analysis. FACS analysis was performed using a BD AccuriTM flow cytometer (BD Biosciences). FACS data were analyzed using FlowJo software (TreeStar, San Carlos, CA, USA) as described in our previous report.

[3] = tested on: PLC/PRF/5 cells; assay: PD-L1 immunoblot in dysadherin-OE PLC/PRF/5 cells
Method: as §1

[4] = tested on: PLC/PRF/5 cells; assay: Immunosuppressive gene expression in dysadherin-OE PLC/PRF/5 cells
Method: Total RNA was isolated using RNAiso reagent (Takara, Shiga, Japan), and purity was confirmed by 260/280 and 260/230 ratios. cDNA templates were synthesized from 0.5 μg of total RNA using the PrimeScriptTM 1st strand cDNA Synthesis Kit (Takara) with random primers. qPCR was performed using Power SYBR Green PCR Master Mix and Step-One Real-time PCR systems (Applied Biosystems, Foster City, CA, USA). The primers used are listed in Supplementary Table S2.

[5] = tested on: Jurkat T cells co-cultured with PLC/PRF/5 cells; assay: Jurkat T-cell co-culture assay (CD69 flow cytometry, IFN-γ ELISA); conditions: Jurkat cells co-cultured with dysadherin-OE PLC/PRF/5 cells, CD3/CD28 stimulation, 24 hours
Method: The rate of T-cell activation after co-culture with the HCC cells were evaluated by direct co-culture system. The assay was performed in 24-well plates. HCC cells (1x10^4) were seeded in the plates and cultured for 24 hours to allow attachment. The cells were transfected with or without YAP5SA and treated with or without verteporfin. Following 24 hours of treatment, the tumor cells were incubated for an additional 24 hours before introducing Jurkat cells (4x10^5). After 1hour of stabilization, T-cell activation was induced by adding soluble anti-CD3 (2 μg/mL, eBioscience, San Diego, CA, USA), soluble anti-CD28 (1 μg/mL, eBioscience), and anti-mouse Ig (5 μg/mL, Southern Biotech, Birmingham, AL, USA). After 24 hours of co-culture, the supernatant was collected for an IFN-γ ELISA assay, and Jurkat cells were harvested for FACS analysis to assess T-cell activation. The cells were stained with the PE-cy7 conjugated anti-CD69 antibody in FACS buffer for at least 1hour at 4 °C in the dark and analyzed on BD AccuriTM flow cytometer and data were processed using FlowJo software.
The concentration of IFN-γ in cell-free supernatants was measured using a Human IFN-γ ELISA Kit (R&D Systems, Minneapolis, MN, USA), following the manufacturer’s instructions.

[6] = tested on: PLC/PRF/5 cells; assay: Sphere formation and Aldefluor assays, dysadherin-OE PLC/PRF/5; conditions: dysadherin-OE PLC/PRF/5 cells; sphere formation, Aldefluor, CSC gene expression
Method: The ALDH enzymatic activity of the cells was determined by ALDEFLUOR kit (Stem Cell Technologies, Vancouver, BC, Canada). Flow cytometric detection of cells expressing ALDH was performed. Diethylaminobenzaldehyde (DEAB), a specific ALDH inhibitor, was utilized to stain negative control cells.
To examine their self-renewal ability, cells were seeded at various densities in poly-HEMA-coated plates (Sigma‒Aldrich, St. Louis, MO, USA) under non-adherent, sphere–forming condition. After incubation, spheres were counted and measured (n = 3/group). Sphere viability was assessed using the CellTiter-Blue Cell Viability Assay (Sigma-Aldrich) according to the manufacturer’s instructions. Fluorescence was measured at 560 nm excitation and 590 nm emission using the Varioskan LUX multimode reader (Thermo Fisher Scientific, Waltham, MA, USA).

[7] = tested on: OCT4 promoter; assay: OCT4 promoter luciferase reporter assay; conditions: dysadherin-OE PLC/PRF/5 cells, verteporfin 1.5 μmol/L, 24 h, normalized to β-galactosidase
Method: Luciferase activity driven by the OCT4 promoter was measured using a reporter vector (GeneCopoeia, Rockville, MD, USA). For transfection, plasmid DNA, β-galactosidase control, and Lipofectamine (Sigma-Aldrich) were mixed at 1 μg:1 μg:2 μL in 300 μL of OptiMEM (Thermo Fisher Scientific, Waltham, MA, USA) medium per well. Following transfection, cells were treated with verteporfin (1.5 μmol/L) and incubated for 24 h, after which cell lysates were prepared. Luciferase readout was performed using Renilla luciferase assay system (Promega, Madison, WI, USA) and quantified with a SpectraMax L luminometer (Molecular Devices, San Jose, CA, USA). Relative luminescence values were normalized to β-galactosidase activity.

[8] = tested on: PLC/PRF/5 cells; assay: Clonogenic survival assay, dysadherin-OE PLC/PRF/5; conditions: dysadherin-OE PLC/PRF/5 cells; 200 cells/well, 14 days, n = 3/group
Method: A clonogenic assay was performed as previously described.[43],[44] Briefly, cells were seeded in 12-well plates (200 cells/well) and cultured for 14 days. Colonies >50 μm in diameter were counted after crystal violet staining (n = 3/group).

Compound | dysadherin-induced increase in FAK phosphorylation [1] | dysadherin-induced increase in YAP activation [1] | dysadherin-induced increase in pluripotency gene expression [1] | dysadherin OE-induced suppression of LATS1/2 phosphorylation ([1]; treatment with a FAK inhibitor) | dysadherin OE-induced resistance to sorafenib [2] | upregulation of PD-L1 expression by dysadherin OE [3] | expression of immunosuppressive genes [4] | dysadherin OE-mediated suppression of CD69 upregulation and IFN-γ release [5] | CSC features [6] | YAP activity [1] | dysadherin OE-induced p-FAK, YAP activation and pluripotency markers ([1]; immunoblot) | OCT4 promoter activity increased by dysadherin OE [7] | clonogenicity [8]
COc1ccc([C@H](CC(=O)O)N2CCN(CCCc3ccc4c(n3)NCCC4)C2=O)cn1 [MK-0429] | specifically suppressed | specifically suppressed | specifically suppressed | – | – | – | – | – | – | – | – | – | –
CNC(=O)c1ccccc1Nc1cc(Nc2ccc(N3CCOCC3)cc2OC)ncc1C(F)(F)F [PND-1186] | specifically suppressed | specifically suppressed | specifically suppressed | reversed | – | – | – | – | – | – | – | – | –
Verteporfin | – | – | – | – | reversed | reversed | markedly reduced | reversed | suppressed | decreased | reversed these effects | suppressed | suppressed

Source: publication PMC12745361, “Dysadherin/YAP axis fuels stem plasticity and immune escape in liver cancer” (Signal Transduction and Targeted Therapy, 2025)
